Laboratory results published in PubChem BioAssay (NCI).
Values joined by “and” are separate entries in the source; they are usually repeats but may differ in a detail not shown here. Equal entries are not always repeated.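 Exposure lasted 48 hours, with cells grown in 96-well plates and compounds tested at five concentrations. GI50 is the concentration that inhibits growth by half. TGI marks complete inhibition of growth.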

What was measured:
Test in all cases: DTP human tumour cell line panel, 48 h
PC-3 prostate = tested on: PC-3 prostate
MOLT-4 leukemia = tested on: MOLT-4 leukemia
NCI-H226 lung = tested on: NCI-H226 lung
SNB-19 CNS = tested on: SNB-19 CNS
CCRF-CEM leukemia = tested on: CCRF-CEM leukemia
UO-31 renal = tested on: UO-31 renal
HL-60(TB) leukemia = tested on: HL-60(TB) leukemia
RPMI-8226 leukemia = tested on: RPMI-8226 leukemia
SF-268 CNS = tested on: SF-268 CNS
SK-MEL-2 melanoma = tested on: SK-MEL-2 melanoma

SMILES	TGI (PC-3 prostate)	TGI (MOLT-4 leukemia)	TGI (NCI-H226 lung)	TGI (SNB-19 CNS)	TGI (CCRF-CEM leukemia)	TGI (UO-31 renal)	TGI (HL-60(TB) leukemia)	TGI (RPMI-8226 leukemia)	TGI (SF-268 CNS)	TGI (SK-MEL-2 melanoma)	GI50 (MOLT-4 leukemia)	GI50 (CCRF-CEM leukemia)	GI50 (HL-60(TB) leukemia)	GI50 (SK-MEL-2 melanoma)	GI50 (PC-3 prostate)	GI50 (SNB-19 CNS)	GI50 (UO-31 renal)	GI50 (RPMI-8226 leukemia)	GI50 (SF-268 CNS)	GI50 (NCI-H226 lung)
CS(=O)(=O)c1nc(-c2cc3c(c(S(C)(=O)=O)n2)CCCC3)cc2c1CCCC2	> 100 µM	> 100 µM	> 100 µM	> 100 µM	> 100 µM	0.111 µM	> 100 µM	> 100 µM	> 47.3 µM	> 100 µM										
CN(C)CCn1c(=O)c2ccc3c4c(nn3CCN(C)C)c3cc(N)ccc3n(c1=O)c24	0.114 µM	> 100 µM	0.759 µM	0.455 µM		0.0501 µM	0.506 µM	60.7 µM	0.221 µM	0.089 µM										
OCCOCn1cc(Cn2ncc3c(SCc4ccccc4)ncnc32)nn1	> 100 µM	48.3 µM	> 100 µM	> 100 µM		> 100 µM	45.1 µM		> 100 µM	> 100 µM										
O=C(O)C(CSC(c1ccccc1)(c1ccccc1)c1ccccc1)N=Cc1cccs1 (stereo not given)	> 42.4 µM	> 75.7 µM	> 96.7 µM	> 100 µM	> 100 µM	> 100 µM	26.6 µM	> 100 µM	> 40.2 µM	27.4 µM										
N#CC(c1ccccc1)N1CCCN(C(C#N)c2ccccc2)C1c1ccccc1O (stereo not given)	> 100 µM	> 100 µM	> 100 µM	> 100 µM	> 100 µM	> 100 µM	> 100 µM	> 100 µM	> 100 µM	> 100 µM										
Nc1ccccc1N/C(=C\C(=O)C(Cl)(Cl)Cl)c1ccccc1	68.8 µM	> 100 µM	> 100 µM	> 100 µM	> 100 µM	39 µM	55.3 µM	86 µM	70.4 µM	28.6 µM										
O=[N+]([O-])c1ccc2c(c1)c(N=NC(=S)NC1CCCCC1)c(O)n2CN1CCOCC1	19 µM	> 100 µM	66 µM	22.2 µM	2.75 µM	18.4 µM	17.2 µM	52.6 µM	19.2 µM	25.9 µM										
CC1(C)CCC2(C(=O)OC3OC(CO)C(O)C(O)C3O)CCC3(C)C(=CCC4C5(C)CCC(OC6OC(CO)C(O)C(O)C6O)C(C)(C)C5CCC43C)C2C1 (stereo not given)	> 25 µM	13.7 µM	> 25 µM	> 25 µM	14 µM	> 25 µM	16.4 µM	10.7 µM	21.8 µM	14.8 µM										
CCOC(=O)C1CCn2c(nc3c2c(=O)n(C)c(=O)n3C)S1 (stereo not given)		> 100 µM	> 100 µM	> 100 µM	> 100 µM		> 100 µM	> 100 µM	> 100 µM	> 100 µM										
COc1c2c(cc3c1C(O)N1CC[C@]34[C@H]3O[C@H]3[C@H](OC)C[C@@H]14)OCO2 (stereo not given in full)	> 100 µM	> 100 µM	> 100 µM	> 100 µM	14.2 µM	> 100 µM	3.53 µM	> 100 µM	> 100 µM	83.8 µM										
CCOC(=O)/C(=C\NCC(OCC)OCC)c1nc2ccccc2[nH]1	63.7 µM	41.3 µM	> 100 µM	> 100 µM	> 100 µM	> 100 µM	52.3 µM	39.5 µM	> 100 µM	44.7 µM										
COC(=O)C1C(O)CCC2CN3CCc4c([nH]c5cccc(OC)c45)C3CC21 (stereo not given)	> 100 µM	> 100 µM	> 100 µM	> 100 µM	> 100 µM	> 100 µM	> 100 µM	> 100 µM	> 100 µM	> 100 µM										
O=[n+]1c2c(n([O-])c3ccccc31)-c1cccc3cccc-2c13	> 100 µM	> 100 µM	> 100 µM	> 100 µM	> 100 µM	> 100 µM	> 100 µM		> 100 µM											
Nc1nc(N)c2c(n1)NC(c1ccccc1)CC(/C=C/c1ccc(Cl)cc1)=N2 (stereo not given)	22 µM	12.6 µM	27.7 µM	29.1 µM	50.4 µM	23.4 µM	28.2 µM	12.7 µM	44.1 µM	42.7 µM										
[O-][N+](CCO)(CCO)c1ncnc2nc[nH]c12	> 100 µM	> 100 µM	> 100 µM	> 100 µM	> 100 µM	> 100 µM		> 100 µM	> 100 µM	> 100 µM										
CCC(C)C1NC(=O)C2CCCN2C(=O)C(CC2CO2)OC(=O)CCNC(=O)C(C)N(C)C(=O)C(C(C)C)N(C)C1=O (stereo not given)	> 100 µM		> 17.1 µM	> 100 µM		15 µM			> 100 µM	0.0341 µM										
COc1ccc(N=c2ssc(C(=S)Nc3ccc(OC)cc3)c2S)cc1	> 100 µM	> 100 µM	> 100 µM	> 100 µM	> 100 µM	> 100 µM	> 100 µM	> 100 µM	> 100 µM	> 100 µM										
CN(CCCNC(=O)c1cn(C)c2c1ccc1cc(Cl)c(Cl)cc12)CCCNC(=O)c1cn(C)c2c1ccc1cc(Cl)c(Cl)cc12	27.4 µM	30.3 µM	47.9 µM	17.9 µM	38.7 µM	39.6 µM	8.32 µM		34 µM	31.5 µM										

SMILES	TGI (PC-3 prostate)	TGI (MOLT-4 leukemia)	TGI (NCI-H226 lung)	TGI (SNB-19 CNS)	TGI (CCRF-CEM leukemia)	TGI (UO-31 renal)	TGI (HL-60(TB) leukemia)	TGI (RPMI-8226 leukemia)	TGI (SF-268 CNS)	TGI (SK-MEL-2 melanoma)	GI50 (MOLT-4 leukemia)	GI50 (CCRF-CEM leukemia)	GI50 (HL-60(TB) leukemia)	GI50 (SK-MEL-2 melanoma)	GI50 (PC-3 prostate)	GI50 (SNB-19 CNS)	GI50 (UO-31 renal)	GI50 (RPMI-8226 leukemia)	GI50 (SF-268 CNS)	GI50 (NCI-H226 lung)
C[C@]12CC[C@@H]3c4ccccc4CC[C@H]3[C@@H]1CC[C@@H]2O		> 100 µM		> 100 µM	> 100 µM	> 100 µM		> 100 µM	> 100 µM											
N[C@H]1CCN(c2c(F)cc3c(=O)c(C(=O)O)cn4c3c2Oc2cc3c(ccc5ccccc53)cc2-4)C1	6.34 µM	> 100 µM	58.5 µM	> 100 µM		> 100 µM	> 100 µM	4 µM		43.5 µM										
C/C(=N\NC(=O)c1cccnc1)c1cccc(/C(C)=N/NC(=O)c2cccnc2)n1		12 µM		> 100 µM	> 100 µM	80.7 µM	> 100 µM		30.6 µM	7.02 µM	2.45 µM	3.49 µM	1.67 µM	2.33 µM						
COc1ccc(/C=C(\C#N)c2nc(N)nc(N3N=C(C)CC3(C)C)n2)c(O)c1	> 100 µM	34.1 µM	35.9 µM	> 100 µM	76.9 µM	36 µM	46.8 µM	98.7 µM	38.3 µM	38.9 µM										
O=C1c2cc3c(cc2-c2c1c1ccc(Cl)cc1c(=O)n2C[C@H](O)[C@@H](O)[C@H](O)CO)OCO3	> 100 µM	12.5 µM		> 100 µM	17 µM	0.125 µM		0.989 µM	> 100 µM	0.432 µM	< 0.01 µM	< 0.01 µM		0.194 µM	0.128 µM	0.0216 µM	0.0297 µM	0.24 µM	0.0155 µM	
Cc1cc(O)c(C(C)C)cc1CN1CCCCC1	> 100 µM	> 100 µM	> 100 µM	> 100 µM	> 100 µM	> 100 µM	> 100 µM	> 100 µM	> 100 µM											
O=S(=O)(/N=C(\NO)Nc1ccc(Cl)cc1)c1ccc(S(=O)(=O)c2ccccc2)s1	> 100 µM	35.9 µM	52.1 µM	> 100 µM	51.6 µM	53.8 µM	50.6 µM	35.8 µM	90.7 µM	37.4 µM										
CC(Sc1ccccc1)C(CO)(CO)[N+](=O)[O-] (stereo not given)		19.3 µM	33 µM	43.8 µM	7.51 µM	22.6 µM	16 µM	49.2 µM	46.5 µM	54 µM										
C[C@]12CCC(=O)C=C1CC[C@@H]1[C@@H]2[C@@H](O)C[C@@]2(C)[C@H]1CC[C@]2(O)C(=O)CO	> 100 µM	> 100 µM	> 100 µM	> 100 µM	> 100 µM	> 100 µM	> 100 µM	> 100 µM	> 100 µM	> 100 µM										
COC(=O)C1C(C)N1C (stereo not given)		> 100 µM	> 100 µM	> 100 µM	> 100 µM		> 100 µM	> 100 µM												
O=C(CCN1CC2CCC(CC2)C1)c1cccs1	31.1 µM	18.7 µM	> 100 µM	> 100 µM	4.81 µM	23.9 µM	44.3 µM	12.4 µM	44.3 µM	33.6 µM										
CC[C@@]1(O)C(=O)OCc2c1cc1n(c2=O)Cc2c-1nc1ccc(O)cc1c2CC[Si](C)(C)C	> 100 µM	0.00221 µM		> 100 µM	0.464 µM	0.123 µM and 0.0795 µM	< 0.001 µM	0.348 µM		0.576 µM and 1.17 µM				0.0742 µM	0.0525 µM					< 0.001 µM
NCCNc1nc(N2CCCC2)c2nc(Cl)c(NCc3ccccc3)nc2n1	7.62 µM	4.48 µM	15.7 µM	3.91 µM	6.87 µM	3.32 µM	3.99 µM	3.84 µM	3.81 µM	3.37 µM										
O=S(=O)(O)c1cccc2c(N=Nc3c(O)ccc4ccccc34)cccc12	> 100 µM	> 100 µM	> 100 µM	> 100 µM	> 100 µM	> 100 µM		> 100 µM	> 100 µM	> 100 µM										
CC(=O)OC1CC(O)CC2=CCC3C4CCC(C(C)(O)C(O)CC5COC(=O)C5C)C4(C)CCC3C21C (stereo not given)	> 25 µM	> 25 µM	> 25 µM	> 25 µM	> 25 µM	> 25 µM	12.8 µM	> 25 µM	> 25 µM	> 25 µM										
CC(=O)N(C)c1ccc2c(ccc[n+]2[O-])c1[N+](=O)[O-]		> 100 µM	> 100 µM		> 100 µM	> 100 µM	> 100 µM	> 100 µM	> 100 µM	> 100 µM										
O=S1(=O)OC(c2ccc(O)cc2)(c2ccc(O)cc2)c2ccccc21	> 100 µM	> 100 µM	> 100 µM	> 100 µM	> 100 µM	> 100 µM	> 100 µM	> 100 µM	> 100 µM	> 100 µM										
